In ChEMBL document CHEMBL5338739, “Discovery of Dual Lysine Methyltransferase G9a and EZH2 Inhibitors with In Vivo Efficacy against Malignant Rhabdoid Tumor” (J Med Chem, 2023):
The source made the active and inactive calls. The calls are words filed in the database; no cut-off is given here.

What was measured:
SW982 [1] = assay: Cytotoxicity against human SW982 cells assessed as reduction in cell viability incubated for 72 hrs by MTT assay; type: functional
RD [2] = assay: Cytotoxicity against human RD cells assessed as reduction in cell viability incubated for 72 hrs by MTT assay; type: functional
SW982 [3] = assay: Antiproliferative activity against human SW982 cells assessed as reduction in clone formation rate at 5 uM for 1 to 2 weeks with fresh medium replacement for every 2 to 3 days by crystal violet staining based microscopic analysis; type: functional, cell-based; settings: time 1-2 weeks
RD [4] = assay: Antiproliferative activity against human RD cells assessed as reduction in clone formation rate at 5 uM for 1 to 2 weeks with fresh medium replacement for every 2 to 3 days by crystal violet staining based microscopic analysis; type: functional, cell-based; settings: time 1-2 weeks
RD [5] = assay: Antiproliferative activity against human RD cells assessed as reduction in clone formation rate at 5 uM for 1 to 2 weeks with fresh medium replacement for every 2 to 3 days in presence of tazemetostat by crystal violet staining based microscopic analysis; type: functional, cell-based; settings: time 1-2 weeks
SW982 [6] = assay: Antiproliferative activity against human SW982 cells assessed as reduction in clone formation rate at 5 uM for 1 to 2 weeks with fresh medium replacement for every 2 to 3 days in presence of tazemetostat by crystal violet staining based microscopic analysis; type: functional, cell-based; settings: time 1-2 weeks
[7] = biological target: Histone-lysine N-methyltransferase EZH2 (Homo sapiens, UniProt Q15910); assay: Inhibition of human EZH2 using SAM as substrate incubated for 1 hr by microplate luminescence based HMT assay
Sequence of Histone-lysine N-methyltransferase EZH2 (Q15910 whole entry): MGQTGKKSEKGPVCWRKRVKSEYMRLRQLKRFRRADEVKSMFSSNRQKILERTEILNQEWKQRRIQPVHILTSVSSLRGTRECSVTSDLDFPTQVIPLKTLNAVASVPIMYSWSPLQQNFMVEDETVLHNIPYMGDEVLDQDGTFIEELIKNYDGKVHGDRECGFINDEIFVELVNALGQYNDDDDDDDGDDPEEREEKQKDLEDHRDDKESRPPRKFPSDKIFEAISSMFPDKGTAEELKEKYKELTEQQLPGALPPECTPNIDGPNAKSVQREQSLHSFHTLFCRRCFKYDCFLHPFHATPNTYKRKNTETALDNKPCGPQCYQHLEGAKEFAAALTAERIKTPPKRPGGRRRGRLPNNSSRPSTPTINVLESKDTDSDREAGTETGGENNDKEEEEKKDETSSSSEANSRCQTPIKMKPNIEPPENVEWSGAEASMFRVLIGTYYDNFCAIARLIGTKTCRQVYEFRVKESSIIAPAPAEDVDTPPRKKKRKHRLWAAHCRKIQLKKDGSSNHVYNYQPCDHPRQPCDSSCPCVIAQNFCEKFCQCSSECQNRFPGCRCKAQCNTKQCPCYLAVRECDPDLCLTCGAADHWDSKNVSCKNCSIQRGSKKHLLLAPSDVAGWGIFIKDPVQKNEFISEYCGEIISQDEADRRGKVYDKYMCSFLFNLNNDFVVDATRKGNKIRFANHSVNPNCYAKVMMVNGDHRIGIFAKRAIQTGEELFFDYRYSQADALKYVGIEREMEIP

[8] = biological target: T1, Histone-lysine N-methyltransferase EHMT2 (Homo sapiens, UniProt Q96KQ7); assay: Inhibition of human recombinant EHMT2 G9a using SAM as substrate incubated for 1 hr by microplate luminescence based HMT assay
T1 sequence (Q96KQ7 whole entry): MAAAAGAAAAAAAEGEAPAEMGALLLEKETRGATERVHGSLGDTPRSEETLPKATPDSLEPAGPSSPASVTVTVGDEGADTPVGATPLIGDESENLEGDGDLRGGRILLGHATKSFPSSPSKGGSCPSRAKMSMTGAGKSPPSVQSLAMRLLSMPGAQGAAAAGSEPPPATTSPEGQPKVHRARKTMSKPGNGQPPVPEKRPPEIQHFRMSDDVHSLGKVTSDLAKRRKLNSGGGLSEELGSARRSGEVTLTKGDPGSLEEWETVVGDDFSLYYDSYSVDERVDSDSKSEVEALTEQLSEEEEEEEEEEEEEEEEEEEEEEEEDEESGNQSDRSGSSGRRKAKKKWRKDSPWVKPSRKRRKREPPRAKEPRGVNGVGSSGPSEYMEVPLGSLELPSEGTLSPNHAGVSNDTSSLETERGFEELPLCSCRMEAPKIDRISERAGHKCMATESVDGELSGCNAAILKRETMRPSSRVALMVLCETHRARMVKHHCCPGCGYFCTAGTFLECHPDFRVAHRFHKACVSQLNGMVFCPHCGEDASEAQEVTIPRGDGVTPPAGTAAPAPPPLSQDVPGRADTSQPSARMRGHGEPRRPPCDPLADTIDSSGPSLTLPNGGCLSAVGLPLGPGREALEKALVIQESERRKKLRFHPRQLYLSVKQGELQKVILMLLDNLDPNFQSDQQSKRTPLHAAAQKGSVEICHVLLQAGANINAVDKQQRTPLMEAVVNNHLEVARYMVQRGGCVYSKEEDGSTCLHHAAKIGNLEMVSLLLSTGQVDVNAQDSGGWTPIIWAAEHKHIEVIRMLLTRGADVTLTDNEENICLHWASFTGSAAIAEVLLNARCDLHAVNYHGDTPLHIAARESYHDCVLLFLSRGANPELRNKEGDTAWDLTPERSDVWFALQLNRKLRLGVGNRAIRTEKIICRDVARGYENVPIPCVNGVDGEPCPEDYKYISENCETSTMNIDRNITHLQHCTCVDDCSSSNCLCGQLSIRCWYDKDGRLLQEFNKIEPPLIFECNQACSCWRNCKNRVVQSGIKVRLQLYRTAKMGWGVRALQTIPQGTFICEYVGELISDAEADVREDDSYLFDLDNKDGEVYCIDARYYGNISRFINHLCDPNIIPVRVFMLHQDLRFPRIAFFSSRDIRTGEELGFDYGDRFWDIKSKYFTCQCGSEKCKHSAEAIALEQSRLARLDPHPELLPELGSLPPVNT

Mus musculus [9] = assay: Downregulation of H3K27me3 expression in tumor tissue of BALB/c nude mouse xenografted with human RD cells at 20 mg/kg, ip administered for 5 consecutive days followed by 2 rest days for 3 weeks by Western blotting analysis; type: functional, organism-based
Mus musculus [10] = assay: Downregulation of H3K9me2 expression in tumor tissue of BALB/c nude mouse xenografted with human RD cells at 20 mg/kg, ip administered for 5 consecutive days followed by 2 rest days for 3 weeks by Western blotting analysis; type: functional, organism-based
RD [11] = assay: Antitumor activity against human RD cells xenografted in BALB/c nude mouse assessed as tumor growth inhibition at 20 mg/kg, ip administered for 5 consecutive days followed by 2 rest days for 3 weeks; settings: 504 h, read-out: TGI

Row | Compound | CC50 (SW982 [1]) | CC50 (RD [2]) | further results
1 | COc1cc2nc(N3CCN(C)CC3)nc(NCc3c(C)cc(C)[nH]c3=O)c2cc1OC | 106 µM | 79.9 µM | 
2 | COc1cc2c(NCc3c(C)cc(C)[nH]c3=O)nc(N3CCC(OC)CC3)nc2cc1OCCCN1CCCC1 | 61.6 µM | 40.1 µM | 
3 | COc1cc2c(NCc3c(C)cc(C)[nH]c3=O)nc(N(C)C)nc2cc1OCCCN1CCCC1 | 85 µM | 74.4 µM | 
4 | COc1cc2c(NCc3c(C)cc(C)[nH]c3=O)nc(N3CCCC3)nc2cc1OCCCN1CCCC1 | 90.2 µM | 75.7 µM | 
5 | COc1cc2nc(N(C)CCCN(C)C)nc(NCc3c(C)cc(C)[nH]c3=O)c2cc1OC | 101 µM | 76 µM | 
6 | COc1cc2c(NCc3c(C)cc(C)[nH]c3=O)nc(N3CCCCCC3)nc2cc1OCCCN1CCCC1 | 35.7 µM | 23.5 µM | 
7 | COc1cc2nc(N(C)CCN(C)C)nc(NCc3c(C)cc(C)[nH]c3=O)c2cc1OC | 85.7 µM | 84.9 µM | 
8 | COc1cc2nc(N3CCOCC3)nc(NCc3c(C)cc(C)[nH]c3=O)c2cc1OC | 89.2 µM | 77.2 µM | 
9 | COc1cc2c(NC3CCN(C(C)C)CC3)nc(C3CCCCC3)nc2cc1OCCCN1CCCC1 | 29.5 µM | 34.2 µM | Activity (SW982 [3]): Active; Activity (RD [4]): Active; Activity (RD [5]): Active; Activity (SW982 [6]): Active
10 | COc1cc2c(NCc3c(C)cc(C)[nH]c3=O)nc(N3CCOCC3)nc2cc1OCCCN1CCCC1 | 99.8 µM | 73.8 µM | 
11 | COc1cc2c(NCc3c(C)cc(C)[nH]c3=O)nc(N3CCCN(C)CC3)nc2cc1OCCCN1CCCC1 | 48.9 µM | 56.5 µM | 
12 | COc1cc2nc(N3CCCN(C)CC3)nc(NCc3c(C)cc(C)[nH]c3=O)c2cc1OC | 99.8 µM | 68.5 µM | IC50 [7]: 0.0533 µM; IC50 [8]: 0.015 µM
13 | CCN(c1cc(-c2ccc(CN3CCOCC3)cc2)cc(C(=O)NCc2c(C)cc(C)[nH]c2=O)c1C)C1CCOCC1 [TAZEMETOSTAT] | 116 µM | 245 µM | Activity (Mus musculus [9]): Active; Activity (Mus musculus [10]): Active; inhibition in vivo at 20 mg/kg (RD [11]): 69.2%
14 | COc1cc2c(NCc3c(C)cc(C)[nH]c3=O)nc(N3CCCCC3)nc2cc1OCCCN1CCCC1 | 27 µM | 41.3 µM | 
15 | CCN1CCN(c2nc(NCc3c(C)cc(C)[nH]c3=O)c3cc(OC)c(OCCCN4CCCC4)cc3n2)CC1 | 53.6 µM | 22.7 µM | 
16 | CCN(CC)c1nc(NCc2c(C)cc(C)[nH]c2=O)c2cc(OC)c(OCCCN3CCCC3)cc2n1 | 87.7 µM | 82.5 µM | 
17 | COc1cc2c(NCc3c(C)cc(C)[nH]c3=O)nc(N3CCN(C)CC3)nc2cc1OCCCN1CCCC1 | 67.2 µM | 60.1 µM | 
18 | COc1cc2c(NCc3c(C)cc(C)[nH]c3=O)nc(N(C)CCN(C)C)nc2cc1OCCCN1CCCC1 | 78.3 µM | 74.3 µM | 
